Experimental data: ChEMBL document CHEMBL2346656, “Anti-hepatitis B virus lignans from the root of Streblus asper” (Bioorg Med Chem Lett, 2013)

Legend:
Hepatitis B virus [1] = assay: Antiviral activity against Hepatitis B virus infected in human HepG2.2.15 cells assessed as inhibition of HBsAg secretion after 12 days by ELISA; type: functional, organism-based; settings: HepG2 2.2.15, 288 h
Hepatitis B virus [2] = assay: Antiviral activity against Hepatitis B virus infected in human HepG2.2.15 cells assessed as inhibition of HBeAg secretion after 12 days by ELISA; type: functional, organism-based; settings: HepG2 2.2.15, 288 h
Hepatitis B virus [3] = assay: Antiviral activity against Hepatitis B virus infected in human HepG2.2.15 cells assessed as inhibition of HBV DNA replication after 72 hrs by PCR analysis; type: functional, organism-based; settings: HepG2 2.2.15, 72 h
[4] = Cytotoxicity against human HepG2(2.2.15) cells after 12 days by MTT assay; type: cell-based
[5] = Selectivity index, ratio of CC50 for human HepG2(2.2.15) cells to IC50 for Hepatitis B virus infected in human HepG2.2.15 cells assessed as HBeAg secretion inhibition assay; type: functional
[6] = Selectivity index, ratio of CC50 for human HepG2(2.2.15) cells to IC50 for Hepatitis B virus infected in human HepG2.2.15 cells by HBsAg secretion inhibition assay; type: functional
[7] = Selectivity index, ratio of CC50 for human HepG2(2.2.15) cells to IC50 for Hepatitis B virus infected human HepG2.2.15 cells by DNA replication assay; type: functional

SMILES	IC50 (Hepatitis B virus [1])	IC50 (Hepatitis B virus [2])	IC50 (Hepatitis B virus [3])	CC50 at 288 h [4]	Ratio CC50/IC50 [5]	Ratio CC50/IC50 [6]	Ratio CC50/IC50 [7]
COc1cc([C@H]2Oc3c(OC)cc(CCCO)cc3[C@@H]2CO)ccc1O [DIHYDRODEHYDRODICONIFERY ALCOHOL]	> 1000 µM	> 1000 µM	> 1000 µM	180 µM	–	–	–
C=CCc1ccc(Oc2cc(CC=C)cc(O)c2O)cc1 [OBOVATOL]	–	–	–	180 µM	–	–	–
C=CCc1ccc(Oc2cc(CC=C)ccc2O)cc1 [ISOMAGNOLOL]	10.3 µM	8.83 µM	12.9 µM	196 µM	22.14	18.91	15.13
COc1cc(C2c3cc(O)c(OC)cc3C[C@@H](CO)[C@@H]2CO[C@@H]2OC[C@@H](O)[C@H](O)[C@H]2O)ccc1O (stereo partly specified)	6.98 µM	26.7 µM	17.7 µM	210 µM	7.87	30.15	11.9
C=CCc1ccc2c(c1)-c1cc([C@@H](O)[C@H](C)O)ccc1Oc1ccc(CC=C)cc1-c1cc([C@@H](O)[C@H](C)O)ccc1O2 [(7'R,8'S,7'R,8'S)-ERYTHRO-STREBLUSLIGNANOL G]	1.58 µM	3.24 µM	9.02 µM	118 µM	36.52	74.9	13.12
C=CCc1ccc(O[C@@H]2O[C@H](CO)[C@@H](O)[C@H](O)[C@H]2O)c(-c2cc(C[C@@H](O)CO)ccc2O)c1	> 1000 µM	> 1000 µM	> 1000 µM	190 µM	–	–	–
C=CCc1ccc(Oc2ccc(C=O)cc2O)cc1 [ISOMAGNALDEHYDE]	162 µM	86.7 µM	> 1000 µM	186 µM	2.14	1.14	–
COc1cc([C@H]2Oc3c(OC)cc(/C=C/C(=O)O)cc3[C@@H]2CO)ccc1O [GLYCOSMISIC ACID]	> 1000 µM	> 1000 µM	> 1000 µM	200 µM	–	–	–
COc1cc([C@H]2c3cc(O)c(OC)cc3C[C@@H](CO)[C@@H]2CO)ccc1O [ISOLARICIRESINOL]	3.67 µM	14.7 µM	12.7 µM	129 µM	8.82	35.28	10.18
C=CCc1ccc(Oc2ccc(/C=C/C=O)cc2)c(O)c1 [ISOSTREBLUSLIGNANALDEHYDE]	12.2 µM	10.5 µM	61.2 µM	200 µM	19.11	16.46	3.27

Further lines, with some results ahead:

IC50 (Hepatitis B virus [1])	IC50 (Hepatitis B virus [2])	IC50 (Hepatitis B virus [3])	SMILES	CC50 at 288 h [4]	Ratio CC50/IC50 [5]	Ratio CC50/IC50 [6]	Ratio CC50/IC50 [7]
> 1000 µM	147 µM	> 1000 µM	C=CCc1ccc(O)c(-c2cc([C@@H](O)[C@@H](C)O)ccc2O)c1 [STREBLUSLIGNANOL]	200 µM	1.36	–	–
109 µM	41.4 µM	> 1000 µM	C=CCc1ccc(O)c(-c2cc(C=O)ccc2O)c1 [MAGNALDEHYDE]	200 µM	4.83	1.84	–
> 1000 µM	> 1000 µM	> 1000 µM	C=CCc1ccc(O)c(-c2cc(C[C@@H](O)CO)ccc2O)c1 [MAGNOLIGNAN A]	176 µM	–	–	–
2.03 µM	3.76 µM	8.67 µM	C=CCc1ccc(O)c(-c2cc(CC=C)ccc2O)c1 [MAGNOLOL]	63.7 µM	16.94	31.37	7.34
56.9 µM	43.2 µM	11.6 µM	C=CCc1ccc(O)c(-c2cc([C@H]3O[C@H](c4ccc(O)c(-c5cc(CC=C)ccc5O)c4)[C@@H](C)O[C@@H]3C)ccc2O)c1 [STREBLUSLIGNANOL F]	137 µM	3.17	2.41	11.87
162 µM	30.2 µM	> 1000 µM	C=CCc1ccc(O)c(-c2cc(O)ccc2O)c1 [RANDAIOL]	201 µM	6.63	1.23	–
141 µM	176 µM	99.5 µM	Nc1ccn([C@@H]2CS[C@H](CO)O2)c(=O)n1 [LAMIVUDINE]	391 µM	2.22	2.77	3.93
